Results as given in US20030114469A1, “Combinations” (priority 2001, published 2003).
Like-named read-outs stand apart in the source and are kept apart here. One block for each compound: values may come before it.

Target: T1, human PDE5, partially purified from human platelets (Homo sapiens, UniProt O76074)
T1 construct: human PDE5, partially purified from human platelets; from tissue; host or cells: human platelets
Experiment: PDE5 Assay (SPA, 3H-cGMP)
Assay type: biochemical
Experimental: 10 μL of each of these solutions is transferred to a selected well of a 96-well Optiplate microtitre plate (e.g., Packard). To determine total binding, 10 μL of aqueous 20% v/v DMSO is added to other selected wells. To determine non-specific binding, a 10 mM solution of sildenafil in 100% DMSO is diluted 20-fold with aqueous 20% v/v DMSO and 10 μL of the resulting solution is added to further selected wells of the Optiplate plate. […] (The PDE Assay Buffer is prepared by dissolving Tris-base (7.56 g) in water (800 mL), adding 1 M aqueous MgCl2 (10.325 mL) and 0.5 M EDTA (4.25 mL), adjusting the pH to 7.5 with 1N hydrochloric acid and making up to 1 L with water). A solution of human PDE5, partially purified from human platelets (11 μL, containing 0.017 units of PDE5 per mL, where 1 unit hydrolyses 1.0 μmole of 3′,5′-cyclic GMP to 5′-GMP per minute at pH 7.5 at 37° C.), in 20 mM Hepes, pH 7.4, 100 mM sodium chloride, 10% v/v glycerol, 1 mM benzamidine and 2 mM dithiotherietol, is diluted 200-fold, with Enzyme Buffer prepared by adding 0.5 M EDTA (2 mL) to a solution of Tris-Base (1.21 g) in water (800 mL), adjusting the pH to 7.5 with 1N HCl and making up to 1 L with water. The diluted PDE5 solution (10 μL) is added to all wells containing test compound, aqueous DMSO or sildenafil solution. The plate is incubated at room temperature for 1 hour. Fifty (50) μL of a suspension of 500 mg PDE Yttrium silicate SPA beads (e.g., Amersham) in 28 mL water is added to each of the wells and the plate is incubated for a further 20 minutes and then sealed using Top Seal-S (e.g., Packard) according to the manufacturer's instructions. The resulting scintillations are counted using a Canberra Packard Top Count (1 minute per well), as a measure of the extent to which binding of PDE5 to the beads is inhibited.

[1] = human platelet PDE5, 3H-cGMP, room temperature 1 hour, yttrium silicate SPA beads, read-out: IC50 (concentration of test compound at which 50% inhibition of PDE5 binding to the beads occurs)

Structure (SMILES): COc1cc2c(Cc3nc4c([nH]3)c(=O)n(C)c(=O)n4CC(C)C)cnc(C)c2cc1OC [Example 7, 8-(6,7-dimethoxy-1-methyl-isoquinolin-4-ylmethyl)-3-isobutyl-1-methyl-3,7-dihydro-purine-2,6-dione]
IC50: 7 nM

Structure (SMILES): COc1cc2cncc(Cc3nc4c([nH]3)c(=O)n(C)c(=O)n4CC(C)C)c2cc1OC [Example 10, 8-(6,7-dimethoxy-isoquinolin-4-ylmethyl)-3-isobutyl-1-methyl-3,7-dihydro-purine-2,6-dione]
IC50: 10 nM

Structure (SMILES): COc1cc2cncc(Cc3nc4c([nH]3)c(=O)n(C)c(=O)n4CC(C)(C)C)c2cc1OC [Example 15]
IC50: 6 nM

Structure (SMILES): COc1cc2c(Cc3nc4c([nH]3)c(=O)n(C)c(=O)n4CC(C)C)cnc(Cl)c2cc1OC [Example 35, 8-(1-chloro-6,7-dimethoxy-isoquinolin-4-ylmethyl)-3-isobutyl-1-methyl-3,7-dihydro-purine-2,6-dione]
IC50 [1]: 10 nM

Structure (SMILES): COc1ccc2cncc(Cc3nc4c([nH]3)c(=O)n(C)c(=O)n4CC(C)C)c2c1 [Example 45, 3-isobutyl-8-(6-methoxy-isoquinolin-4-ylmethyl)-1-methyl-3,7-dihydro-purine-2,6-dione]
IC50: 2 nM

Structure (SMILES): COc1ccc2cncc(Cc3nc4c([nH]3)c(=O)n(C)c(=O)n4CC3CC3)c2c1 [Example 49]
IC50 [1]: 3.7 nM

IC50 [1]: 5.5 nM
Structure (SMILES): C#Cc1ccc2cncc(Cc3nc4c([nH]3)c(=O)n(C)c(=O)n4CC(C)C)c2c1 [Example 55, 8-(6-ethynyl-isoquinolin-4-ylmethyl)-3-isobutyl-1-methyl-3,7-dihydro-purine-2,6-dione]

Structure (SMILES): COc1cc2cncc(Cc3nc4c([nH]3)c(=O)n(C)c(=O)n4Cc3ccc(NS(=O)(=O)N(C)C)cc3)c2cc1OC [Example 60]
IC50 [1]: 2.8 nM

Structure (SMILES): COc1cc2cncc(Cc3nc4c([nH]3)c(=O)n(C)c(=O)n4CC(C)CO)c2cc1OC (stereo not shown) [Example 68, 8-(6,7-dimethoxy-isoquinolin-4-ylmethyl)-3-(3-hydroxy-2-methyl-propyl)-1-methyl-3,7-dihydro-purine-2,6-dione]
IC50: 7 nM

Structure (SMILES): COc1cc2cncc(Cc3nc4c(=O)n(C)c(=O)n(CC5(C)CC5)c4[nH]3)c2cc1OC [Example 70, 8-(6,7-dimethoxy-isoquinolin-4-ylmethyl)-1-methyl-3-(1-methyl-cyclopropylmethyl)-3,9-dihydro-purine-2,6-dione]
IC50 [1]: 9 nM
